Experimental findings from ChEMBL document CHEMBL5050843, “Amide substituted thiazoles as protein secretion inhibitors” (2019) are described below.

Molecules are shown by their SMILES. A value given as a limit tells only on which side of the number the result lay.

Assay [1] can be described thus: Inhibition of constitutively active VCAMss-Gluc secretion in human Flp-In-T-REx-293 cells at 2 uM measured by Gaussia luciferase reporter gene method relative to control. Format: functional.
The nature of assay [2]: Inhibition of constitutively active VCAMss-Gluc secretion in human Flp-In-T-REx-293 cells measured by Gaussia luciferase reporter gene method. Format: functional, cell-based. (In general: Reporter assays use an easily measured gene product as a stand-in for the process of interest.)
The nature of assay [3]: Inhibition of constitutively active PR1ss-Gluc secretion in human Flp-In-T-REx-293 cells measured by Gaussia luciferase reporter gene method. Format: functional, cell-based.
Assay [4] can be described thus: Inhibition of TNF-alpha-FL-Gluc secretion in doxycyclin-induced human Flp-In-T-REx-293 cells measured by Gaussia luciferase reporter gene method. Format: functional, cell-based.
Assay [5] in a line: Inhibition of PD1ss-Gluc secretion in doxycyclin-induced human Flp-In-T-REx-293 cells measured by Gaussia luciferase reporter gene method. The assay is classed as functional, cell-based.
The nature of assay [6]: Inhibition of PR1ss-Gluc secretion in doxycyclin-induced human Flp-In-T-REx-293 cells measured by Gaussia luciferase reporter gene method. Format: functional, cell-based.

A word on the inhibition: it is the drop in the measured response relative to a control, in per cent. High values mean strong suppression, low ones little suppression. Usually IC50 stands for the concentration that inhibits the measured activity by half. Low readings indicate higher potency, high ones lower potency.

As to `CN(C(=O)c1cc2c(s1)CCCC2)c1nc(C(C)(C)C)cs1`, at 2 µM the inhibition in assay [1] was 19%.
On the same count and under the same terms, the same measure for `Cc1ccc(S(=O)(=O)Nc2nc(C(C)(C)C)cs2)cc1`: 0%; for `CC(C)(C)c1csc(NC(=O)N2CCCOCC2)n1`: 0%; for `CC(C)(C)c1csc(NC(=O)Nc2nc(C(C)(C)C)cs2)n1`: 19%.
Regarding `CC(C)(C)c1csc(NC(=O)C2CCCCC2)n1`, the IC50 in assay [2] is 9.8 µM; in assay [3] it was over 25 µM. At 2 µM the inhibition in assay [1] was 30%.
Turning to `CC(C)(C)c1csc(NC(=O)Cc2cn(Cc3ccncc3)c3ccc(Cl)cc23)n1`, the half-maximal inhibitory concentration (IC50) in assay [2] is 1.41 µM; in assay [4] it was 11 µM; in assay [5] it was 2.76 µM; in assay [3] it was over 25 µM; in assay [6] it was over 25 µM.
On to `CC(C)(C)c1csc(NC(=O)c2ccc(-c3cccc([N+](=O)[O-])c3)s2)n1`, for which the inhibition at 2 µM in assay [1] was 59%.
Take `CCC(C)(C)c1csc(NC(=O)Cc2cn(Cc3ccccc3)c3ccc(Cl)cc23)n1`: the IC50 in assay [2] is 0.109 µM; in assay [4] it was 9.8 µM; in assay [5], 2.2 µM; in assay [3] it was over 25 µM; in assay [6], over 25 µM.
The compound `CN(C)CC#Cc1ccc(C(=O)Nc2nc(C(C)(C)C)cs2)s1` had an inhibition at 2 µM in assay [1] of 76%.
The same measure, in the same setting: in the case of `CC(C)(C)C(=O)Nc1nc(C(C)(C)C)cs1` it was 0%; in that of `Cc1ccc(C(=O)Nc2nc(C(C)(C)C)cs2)cc1`, 9%.
In turn, `CC(C)(C)c1csc(NC(=O)c2ccc(C#CCCCCCCCCO)s2)n1` displayed an inhibition at 2 µM in assay [1] of 52%.
As for `Cn1c(C(C)(C)C)cs/c1=N\C(=O)c1cc2c(s1)CCCC2`, testing at 2 µM in assay [1] gave an inhibition of 63%.
With `CC(C)(C)c1csc(NC(=O)c2ccc(-c3cc(Cl)cc(Cl)c3)s2)n1`, the inhibition at 2 µM in assay [1] came out at 35%.
On the same count and under the same terms, the same measure for `CC(C)(C)c1csc(NC(=O)c2ccc(C#CCN3CCOCC3)s2)n1`: 38%.
Take `CC(C)(C)c1csc(NC(=O)N2CCOc3ccccc3C2)n1`: the IC50 in assay [2] was 10.1 µM; in assay [3] it was over 25 µM. The same compound gave an inhibition at 2 µM in assay [1] of 24%.
In turn, `C#Cc1ccc(C(=O)Nc2nc(C(C)(C)C)cs2)s1` displayed an inhibition at 2 µM in assay [1] of 66%.
Still for that read-out and setting: in the case of `CC(C)(C)c1csc(NC(=O)c2ccc(CCCO)s2)n1` it was 31%; in that of `CC(O)CCc1ccc(C(=O)Nc2nc(C(C)(C)C)cs2)s1` (configuration not stated), 30%.
On to `CC(C)(C)c1csc(NC(=O)c2cc3c(s2)CCCC3)n1`, for which the half-maximal inhibitory concentration (IC50) in assay [2] is 5.35 µM; in assay [4], 22.7 µM; in assay [5], 4.44 µM; in assay [3], over 25 µM; in assay [6] it was over 25 µM.
In the case of `O=C(Nc1nc(-c2ccc(C(F)(F)F)cc2)cs1)c1cc2c(s1)CCCC2`, in assay [1], the inhibition at 2 µM came out at 3%.
For `CC(C)(C)c1csc(NC(=O)Cc2cn(Cc3ccccc3Cl)c3ccc(Cl)cc23)n1`, the half-maximal inhibitory concentration (IC50) is 0.147 µM in assay [2]; over 25 µM in assay [4]; 1.15 µM in assay [5]; over 25 µM in assay [3]; over 25 µM in assay [6].
In the case of `CC(C)(C)c1csc(NC(=O)c2ccc(-c3cccnc3)s2)n1`, in assay [1], the inhibition at 2 µM was determined as 19%.
`CC(C)(C)c1csc(NC(=O)c2ccc(C#CCCCN3CCOCC3)s2)n1` yielded an inhibition at 2 µM in assay [1] of 45%.
Turning to `CC(O)C#Cc1ccc(C(=O)Nc2nc(C(C)(C)C)cs2)s1` (configuration not stated), in assay [1], at 2 µM the inhibition was 24%.
Same read-out and setting: the same measure for `CC(C)(C)c1csc(NC(=O)c2ccc(C#CCCCO)s2)n1`: 53%; for `CC(C)(C)c1csc(NC(=O)c2ccc(C#C[Si](C)(C)C)s2)n1`: 54%.
In the case of `CC(C)(C)c1csc(NC(=O)c2ccc3c(c2)CCCC3)n1`, the IC50 in assay [2] is 10.9 µM; in assay [3], over 25 µM. This compound had an inhibition at 2 µM in assay [1] of 20%.
In assay [1], `CC(C)(C)c1csc(NC(=O)c2ccc(C#CCO)s2)n1` gave an inhibition at 2 µM of 80%.
`O=C(Nc1nc(C2CC3CCC(C3)C2)cs1)c1cc2c(s1)CCCC2` (configuration not stated) registered an inhibition at 2 µM in assay [1] of 55%.
